Patent US5308836A, “Pharmaceutical composition of stabilized [Leu^13 ]-motilin-Hse” (Sanwa Kagaku Kenkyusho Co., Ltd., priority 1991, dated 1994)
Like-named read-outs stand apart in the source and are kept apart here.

Key:
[1] = compared with native type motilin and [Leu^13 ]-motilin; cited from earlier work
[2] = assay type: physicochemical; settings: lyophilized powder, no additive
Protocol: (§1) Aqueous solutions, each containing 20 μg/ml of [Leu^13 ]-motilin were aseptically prepared by dissolving 1 mg of [Leu^13 ]-motilin in a refined water and adding 0.1N-sodium hydroxide and 0.1N-hydrochloric acid to adjust pH of each solution in various values.
(§2) Each of the solutions different in pH value was aseptically charged in a glass vial to lyophilize the same. Each vial was stored in a constant temperature bath kept at 60° C. for 30 days and then a remaining amount of [Leu^13 ]-motilin was measured with HPLC method to check the relation with the pH value of the solution.
Aqueous solutions, each containing 20 μg/ml of [Leu^13 ]-motilin-Hsewere aseptically prepared by dissolving 1 mg of [Leu^13 ]-motilin-Hse in a refined water and adding 0.1N-sodium hydroxide and 0.1N-hydrochloric acid to adjust pH of each solution in various values.
as §2, with “]-motilin-Hse and amount of [Leu^13 ]-motilin-Hse-lactone formed by modification of Hse residue at 23-position of the former were” for “]-motilin was”, “solution. […]” for “solution.”

[3] = assay type: physicochemical; settings: for Amount of formed [Leu^13 ]-motilin-Hse-lactone: aqueous solution 20 μg/ml
Protocol: An aqueous solution containing 20 μg/ml of [Leu^13 ]-motilin-Hse was aseptically prepared by dissolving 1 mg of [Leu^13 ]-motilin-Hse in a refined water and adding 0.1N-sodium hydroxide and 0.1N-hydrochloric acid to adjust pH of the solution to 6.0 or 7.0.
Each of the solutions different in pH value was aseptically charged in a glass vial to seal the same. Each vial was stored in a constant temperature bath kept at 60° C. for 30 days and then a remaining amount of [Leu^13 ]-motilin-Hse was measured with HPLC method. […]
An aqueous solution containing 20 μg of [Leu^13 ]-motilin-Hse and 30 mg/ml of tartaric acid was aseptically prepared by dissolving 1 mg of [Leu^13 ]-motilin-Hse and tartaric acid in a refined water and adding 0.1N-sodium hydroxide and 0.1N-hydrochloric acid to adjust pH of the solution to 6.0 or 7.0.
as §1
as §2, with “seal” for “lyophilize”
(§3) Aqueous solutions, each containing 20 μg/ml of [Leu^13 ]-motilin-Hsewere aseptically prepared by dissolving 1 mg of [Leu^13 ]-motilin-Hse in a refined water and adding 0.1 N-sodium hydroxide and 0.1 N-hydrochloric acid to adjust pH of each solution in various values.
as §2, with “seal” for “lyophilize”, “]-motilin-Hse and amount of [Leu^13 ]-motilin-Hse-lactone formed by modification of Hse residue at 23-position of the former were” for “]-motilin was”
as §3, with “]-motilin-Hseand 30 mg/ml of tartaric acid were” for “]-motilin-Hsewere”, “]-motilin-Hse and tartaric acid” for “]-motilin-Hse”
as §3, with “]-motilin-Hseand 27.2 mg/ml of potassium dihydrogenphosphate were” for “]-motilin-Hsewere”, “]-motilin-Hse and potassium dihydrogenphosphate” for “]-motilin-Hse”, “N sodium” for “N-sodium”

Amount of formed [Leu^13 ]-motilin-Hse-lactone ([2]; solution pH 3.0, 60° C. 30 days): 25.1%
Amount of formed [Leu^13 ]-motilin-Hse-lactone ([2]; solution pH 4.0, 60° C. 30 days): 16.9%
Amount of formed [Leu^13 ]-motilin-Hse-lactone ([2]; solution pH 4.5, 60° C. 30 days): 7.3%
Amount of formed [Leu^13 ]-motilin-Hse-lactone ([2]; solution pH 5.0, 60° C. 30 days): 3.9%
Amount of formed [Leu^13 ]-motilin-Hse-lactone ([2]; solution pH 5.5, 60° C. 30 days): 1.8%
Amount of formed [Leu^13 ]-motilin-Hse-lactone ([2]; solution pH 6.0, 60° C. 30 days): 0%
Amount of formed [Leu^13 ]-motilin-Hse-lactone ([2]; solution pH 6.5, 60° C. 30 days): 0%
Amount of formed [Leu^13 ]-motilin-Hse-lactone ([2]; solution pH 7.0, 60° C. 30 days): 0%
Amount of formed [Leu^13 ]-motilin-Hse-lactone ([2]; solution pH 8.0, 60° C. 30 days): 0%
Amount of formed [Leu^13 ]-motilin-Hse-lactone ([2]; solution pH 9.0, 60° C. 30 days): 0%
pH range of relatively stable state ([3]; [Leu^13 ]-motilin-Hse aqueous solution, no additive, 60° C. 30 days): 4.0-6.0
Amount of formed [Leu^13 ]-motilin-Hse-lactone ([3]; 27.2 mg/ml potassium dihydrogenphosphate, pH 3.0, 60° C. 30 days): 31.1%
Amount of formed [Leu^13 ]-motilin-Hse-lactone ([3]; 27.2 mg/ml potassium dihydrogenphosphate, pH 4.0, 60° C. 30 days): 17.5%
Amount of formed [Leu^13 ]-motilin-Hse-lactone ([3]; 27.2 mg/ml potassium dihydrogenphosphate, pH 4.5, 60° C. 30 days): 9.3%
Amount of formed [Leu^13 ]-motilin-Hse-lactone ([3]; 27.2 mg/ml potassium dihydrogenphosphate, pH 5.0, 60° C. 30 days): 5.7%
Amount of formed [Leu^13 ]-motilin-Hse-lactone ([3]; 27.2 mg/ml potassium dihydrogenphosphate, pH 5.5, 60° C. 30 days): 2.1%
Amount of formed [Leu^13 ]-motilin-Hse-lactone ([3]; 27.2 mg/ml potassium dihydrogenphosphate, pH 6.0, 60° C. 30 days): 0%
Amount of formed [Leu^13 ]-motilin-Hse-lactone ([3]; 27.2 mg/ml potassium dihydrogenphosphate, pH 6.5, 60° C. 30 days): 0%
Amount of formed [Leu^13 ]-motilin-Hse-lactone ([3]; 27.2 mg/ml potassium dihydrogenphosphate, pH 7.0, 60° C. 30 days): 0%
Amount of formed [Leu^13 ]-motilin-Hse-lactone ([3]; 27.2 mg/ml potassium dihydrogenphosphate, pH 8.0, 60° C. 30 days): 0%
Amount of formed [Leu^13 ]-motilin-Hse-lactone ([3]; 27.2 mg/ml potassium dihydrogenphosphate, pH 9.0, 60° C. 30 days): 0%
Amount of formed [Leu^13 ]-motilin-Hse-lactone ([3]; 30 mg/ml tartaric acid, pH 3.0, 60° C. 30 days): 29.7%
Amount of formed [Leu^13 ]-motilin-Hse-lactone ([3]; 30 mg/ml tartaric acid, pH 4.0, 60° C. 30 days): 16.8%
Amount of formed [Leu^13 ]-motilin-Hse-lactone ([3]; 30 mg/ml tartaric acid, pH 4.5, 60° C. 30 days): 6.4%
Amount of formed [Leu^13 ]-motilin-Hse-lactone ([3]; 30 mg/ml tartaric acid, pH 5.0, 60° C. 30 days): 2.7%
Amount of formed [Leu^13 ]-motilin-Hse-lactone ([3]; 30 mg/ml tartaric acid, pH 5.5, 60° C. 30 days): 1.5%
Amount of formed [Leu^13 ]-motilin-Hse-lactone ([3]; 30 mg/ml tartaric acid, pH 6.0, 60° C. 30 days): 0%
Amount of formed [Leu^13 ]-motilin-Hse-lactone ([3]; 30 mg/ml tartaric acid, pH 6.5, 60° C. 30 days): 0%
Amount of formed [Leu^13 ]-motilin-Hse-lactone ([3]; 30 mg/ml tartaric acid, pH 7.0, 60° C. 30 days): 0%
Amount of formed [Leu^13 ]-motilin-Hse-lactone ([3]; 30 mg/ml tartaric acid, pH 8.0, 60° C. 30 days): 0%
Amount of formed [Leu^13 ]-motilin-Hse-lactone ([3]; 30 mg/ml tartaric acid, pH 9.0, 60° C. 30 days): 0%
Amount of formed [Leu^13 ]-motilin-Hse-lactone ([3]; no additive, pH 3.0, 60° C. 30 days): 30.2%
Amount of formed [Leu^13 ]-motilin-Hse-lactone ([3]; no additive, pH 4.0, 60° C. 30 days): 18.7%
Amount of formed [Leu^13 ]-motilin-Hse-lactone ([3]; no additive, pH 4.5, 60° C. 30 days): 8.7%
Amount of formed [Leu^13 ]-motilin-Hse-lactone ([3]; no additive, pH 5.0, 60° C. 30 days): 5.5%
Amount of formed [Leu^13 ]-motilin-Hse-lactone ([3]; no additive, pH 5.5, 60° C. 30 days): 1.9%
Amount of formed [Leu^13 ]-motilin-Hse-lactone ([3]; no additive, pH 6.0, 60° C. 30 days): 0%
Amount of formed [Leu^13 ]-motilin-Hse-lactone ([3]; no additive, pH 6.5, 60° C. 30 days): 0%
Amount of formed [Leu^13 ]-motilin-Hse-lactone ([3]; no additive, pH 7.0, 60° C. 30 days): 0%
Amount of formed [Leu^13 ]-motilin-Hse-lactone ([3]; no additive, pH 8.0, 60° C. 30 days): 0%
Amount of formed [Leu^13 ]-motilin-Hse-lactone ([3]; no additive, pH 9.0, 60° C. 30 days): 0%
Substance: [Leu^13 ]-motilin-Hse
biological activities [1]: higher biological activities
